Data reported in patent publication US20190144499A1, “PHENYL P[…], AND MANUFACTURING METHOD AND PHARMACEUTICAL APPLICATION THEREOF” (Jiangsu Hengrui Medicine Co., Ltd., priority 2016, published 2019).
Where a SMILES comes first, the peptide text is derived from it. [ ]: non-standard residue; d: D form. The star is where a group is joined. Piperidin1yl(4-NH2,4-COOH) = NC1(C(=O)O)CCN(*)CC1; N(Indan-2-yl)Gly = O=C(O)CNC1Cc2ccccc2C1; Gly(NCH2CH2Ph) = O=C(O)CNCCc1ccccc1; Morpholide = C1CN(*)CCO1

How the values were obtained:
[1] = target: T1, human KOR (h-KOR) receptors (Homo sapiens, UniProt P41145); assay: h-KOR agonist activity test (cAMP/CRE-luciferase reporter in HEK293/h-KOR/CRE cells); type: cell-based; settings: Forskolin, 4 hours, luciferase chemiluminescence, read-out: EC50 on agonizing h-KOR receptor and affecting cAMP levels
T1 construct: expressed in transfected cells
Excerpt: The objective of this experiment is to determine the agonistic effect of the compounds of the present invention on human KOR (h-KOR) receptors, and to evaluate the in vitro activity of the compounds according to the values of EC50.
The compounds of the present invention can activate h-KOR receptor, thereby reducing intracellular cAMP levels. The second messenger cAMP enters the nucleus and binds to the CRE of the DNA, thereby initiating the expression of the downstream luciferase. Luciferase reacts with its substrate to emit fluorescence, and the measured fluorescence signals reflect the agonistic activity of the compounds.
The activity of the test example compounds on agonizing h-KOR and affecting downstream cAMP levels was tested by the following method.
KOR/pcDNA3.1 (+) and CRE/pGL4.29 were transferred into HEK293 cells. G418 and hygromycin were added into the culture medium, and HEK293/KOR/CRE monoclonal cell lines were screened in a 96-well cell culture plate.
HEK293/h-KOR/CRE monoclonal cells were cultured in a DMEM/high glucose medium (10% FBS, 1 mg/ml G418, 200 μg/ml hygromycin, mixed uniformly), and passaged every 3 days. On the day of the experiment, a cell suspension was prepared with a fresh cell medium, added to a 96 well plate (BD, #356692) with 20,000 cells/well, and incubated in 5% CO2 at 37° C. On the second day, the compound was dissolved in pure DMSO at a concentration of 20 mM, then formulated with DMSO to a first concentration of 200 nM and diluted in 3 fold concentration gradient to 8 concentrations. 90 μl of DMSO were added to blank and control wells. The compound solution was diluted 20-fold with DMEM/hyperglucose (SH30243.01B, Hyclone) medium containing […]. The cell culture plates inoculated on the first day were taken out, and 10 μl of the diluted drug or the control (0.5% DMSO) was added to each well. The plate was gently shaken, and placed at 37° C. for 4 hours. In a 96-well cell culture plate, 100 μl of luciferase assay solution (Promega, # E6110) was added to each well. The plate was placed for 5 minutes at room temperature. The chemiluminescence value was measured using Victor 3.0. The EC50 values of the compounds were calculated using Graphpad Prism software based on each concentration of the compound and the corresponding signal value.
The activity of the compounds of the present invention on agonizing h-KOR and affecting downstream cAMP levels was determined by the above test, and the EC50 values are shown in Table 1.1.

[2] = Pharmacokinetics assay in rats after intravenous administration; type: in vivo; settings: both sexes, Sprague-Dawley, rat, plasma, SD rats, 1 mg/kg; for Vd: read-out: Apparent Distribution Volume Vz; for AUC: read-out: Area Under Curve AUC; for clearance: read-out: Clearance CL; for half-life: read-out: Half-Life t1/2 (converted); for MRT: read-out: Mean Residence Time MRT
Description: (§1) Rats were used as test animals. The drug concentration in plasma at different time points was determined by LC/MS/MS after intravenous administration of the compounds of Examples 2, 5 and 8 to the rats. The pharmacokinetic behavior of the compounds of the present invention was studied and evaluated in SD rats.
12 Sprague-Dawley (SD) rats, half male and half female, were purchased from SINO-BRITISH SIPPR/BK LAB. ANIMAL LTD., CO, with License No.: SOCK (Shanghai) 2008-0016.
The appropriate amount of the test compounds was weighed, and added with 5% 5% DMSO+5% PEG400+90% normal saline successively.
After an overnight fast, 12 SD rats, half male and half female, were divided into 3 groups equally, and administered intravenously at a dose of an administration volume of 5 mL/kg.
(§2) In the venous group, blood (0.2 mL) was taken from the orbital sinus before administration and 0.25, 0.5, 1.0, 2.0, 4.0, 8.0, 11.0 and 24.0 hours after administration. The samples were stored in heparinized tubes, and centrifuged for 10 minutes at 3,500 rpm to separate the blood plasma. The plasma samples were stored at −20° C.
The concentration of the test compounds in SD rat plasma after intravenous administration was determined by LC-MS/MS.

[3] = Pharmacokinetics assay in dogs after intravenous administration; type: in vivo; settings: male, dog, plasma, Beagle dogs, 0.3 mg/kg
Description: as §1, with “Beagle dogs” for “Rats”, “compound” for “compounds”, “Example” for “Examples 2,”, “5” for “5 and 8”, “Beagle dogs.” for “rats.”, “Beagle dogs.” for “SD rats.”
3 Beagle dogs in one group, male, were purchased from Medicilon Pharmaceutical Technology (Shanghai) Co., Ltd.
The appropriate amount of the test compound was weighed, and added with 100% normal saline.
After an overnight fast, 3 Beagle dogs in one group, male, were administered intravenously at a dose of an administration volume of 2 mL/kg.
as §2, with “(1” for “(0.2”, “jugular vein” for “orbital sinus”, “5 minutes, 15 minutes,” for “0.25,”, “12.0” for “11.0”, “−80°” for “−20°”
The concentration of the test compound in Beagle dog plasma after intravenous administration was determined by LC-MS/MS.

[4] = system: carrageenan inflammatory pain model in rats; assay: Carrageenan-induced inflammatory pain in rats, plantar tenderness test (electronic Von Frey); type: in vivo, Wistar rats; settings: for threshold of tenderness: 30 minutes before detection, 4 hours after carrageenan, model group 7.6 g, blank control about 20 g
Description: A carrageenan inflammatory pain model in rats was established to evaluate the therapeutic effect of KOR agonists on inflammatory pain in rats.
Male Wistar rats were purchased from Shanghai Slac Laboratory Animal Co., Ltd. (Shanghai, China, Certificate No. 2015000513408, License No. SCXK (Shanghai) 2012-0002). The rats were 150-180 g, and fed at 5/cage, in a condition of 12/12 hours light/dark cycle adjustment, constant temperature of 23±1° C., humidity of 50˜60%, and free access to food and water. After purchase, the animals adapted to this condition for 7 days before the experiment was started.
1% λ-Carrageenan was placed in physiological saline, and stirred overnight to form a jelly-like suspension.
The experimental method was modified in accordance with the method of Document 1 (Kazunari Nakao et al.). Before inflammatory pain experiment, rats were randomly divided into the following groups according to body weight: blank control group, model group, Example 5-0.1 mg/kg group, and Example 5-0.3 mg/kg group. There were 8 rats in each group. Inflammatory pain model was made in Wistar rat footpads that were subcutaneously injected with 1% carrageenan (100 μl). After 4 hours, the rats were subjected to a plantar tenderness test to evaluate the mechanical pain threshold. Single tail vein administration of the drug (1 ml/kg) was carried out 30 minutes before detection, and the control group and the model group were given corresponding solvents.
Electronic Von Frey: UGO BASILE, type 38450.
The experimental data were expressed as mean±standard deviation (S.D.). Statistical comparisons were performed using the excel software t test.

T1 sequence (P41145 whole entry): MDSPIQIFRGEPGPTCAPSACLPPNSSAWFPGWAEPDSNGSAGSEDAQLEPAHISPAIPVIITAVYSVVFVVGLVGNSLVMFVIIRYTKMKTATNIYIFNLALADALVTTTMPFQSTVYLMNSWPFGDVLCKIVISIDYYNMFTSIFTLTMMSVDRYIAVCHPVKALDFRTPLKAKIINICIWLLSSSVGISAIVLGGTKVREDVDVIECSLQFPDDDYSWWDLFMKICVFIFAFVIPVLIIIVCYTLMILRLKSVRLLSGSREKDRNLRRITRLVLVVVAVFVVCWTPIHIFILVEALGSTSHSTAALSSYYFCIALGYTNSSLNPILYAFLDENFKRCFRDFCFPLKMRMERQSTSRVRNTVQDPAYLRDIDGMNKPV

Compound	EC50 [1] [nM]	Vd [2] [L/kg]	AUC [2] [ng·h/mL]	clearance [2] [mL/min/kg]	half-life [2] [min]	MRT [2] [min]	also measured
CC(C)C[C@@H](NC(=O)[C@@H](Cc1ccccc1)NC(=O)CNCCc1ccccc1)C(=O)N[C@H](CCCCN)C(=O)N1CCC(N)(C(=O)O)CC1 [Example 8, 4-amino-1-((2R,5R,8R)-2-(4-aminobutyl)-8-benzyl-5-isobutyl-4,7,10-trioxo-14-phenyl-3,6,9,12-tetraazatetradecan-1-oyl)piperidine-4-carboxylic Acid] (H-[Gly(NCH2CH2Ph)][dF][dL][dK]-{Piperidin1yl(4-NH2,4-COOH)})	0.013	0.499 ± 0.111	1520 ± 436	11.6 ± 3.3	30.1 ± 2.28	34 ± 6.72	
CCC(CNCC(=O)N[C@H](Cc1ccccc1)C(=O)N[C@H](CC(C)C)C(=O)N[C@H](CCCCN)C(=O)N1CCC(N)(C(=O)O)CC1)c1ccccc1 (stereo partly drawn) [Example 7, 4-amino-1-((2R,5R,8R)-2-(4-aminobutyl)-8-benzyl-5-isobutyl-4,7,10-trioxo-14-phenyl-3,6,9,12-tetraazahexadecan-1-oyl)piperidine-4-carboxylic Acid]	0.003						
CC(C)C[C@@H](NC(=O)[C@@H](Cc1ccccc1)NC(=O)CNCC1(c2ccccc2)CC1)C(=O)N[C@H](CCCCN)C(=O)N1CCC(N)(C(=O)O)CC1 [Example 1, 4-amino-1-((6R,9R,12R)-12-(4-aminobutyl)-6-benzyl-9-isobutyl-4,7,10-trioxo-1-(1-phenylcyclopropyl)-2,5,8,11-tetraazatridecan-13-oyl)piperidine-4-carboxylic acid]	0.056						
CC(C)C[C@@H](NC(=O)[C@@H](Cc1ccccc1)NC(=O)CNCC(C)(C)c1ccccc1)C(=O)N[C@H](CCCCN)C(=O)N1CCC(N)(C(=O)O)CC1 [Example 3, 4-amino-1-((2R,5R,8R)-2-(4-aminobutyl)-8-benzyl-5-isobutyl-14-methyl-4,7,10-trioxo-14-phenyl-3,6,9,12-tetraazapentadecan-1-oyl)piperidine-4-carboxylic Acid]	0.004						
CC(C)C[C@@H](NC(=O)[C@@H](Cc1ccccc1)NC(=O)CN[C@H]1C[C@@H]1c1ccccc1)C(=O)N[C@H](CCCCN)C(=O)N1CCOCC1 [Example 6, (R)—N—((R)-6-amino-1-morpholino-1-oxohexan-2-yl)-4-methyl-2-((R)-3-phenyl-2-(2-(((1S,2R)-2-phenylcyclopropyl)amino)acetamido)propanamido)pentanamide]	0.079						
CC(C)C[C@@H](NC(=O)[C@@H](Cc1ccccc1)NC(=O)CNC[C@@H](C)c1ccccc1)C(=O)N[C@H](CCCCN)C(=O)N1CCC(N)(C(=O)O)CC1 [Example 2, 4-amino-1-((2R,5R,8R,14S)-2-(4-aminobutyl)-8-benzyl-5-isobutyl-4,7,10-trioxo-14-phenyl-3,6,9,12-tetraazapentadecan-1-oyl)piperidine-4-carboxylic acid]	0.015	0.28 ± 0.046	2560 ± 427	6.66 ± 1.28	29.3 ± 1.56	31.5 ± 5.94	
CC(C)C[C@@H](NC(=O)[C@@H](Cc1ccccc1)NC(=O)CNC[C@H](C)c1ccccc1)C(=O)N[C@H](CCCCN)C(=O)N1CCC(N)(C(=O)O)CC1 [Example 5, 4-amino-1-((2R,5R,8R,14R)-2-(4-aminobutyl)-8-benzyl-5-isobutyl-4,7,10-trioxo-14-phenyl-3,6,9,12-tetraazapentadecan-1-oyl)piperidine-4-carboxylic Acid]	0.001	0.41 ± 0.112	1700 ± 363	10.1 ± 1.8	28.1 ± 5.52	33.4 ± 7.44	Vd ([3]; read-out: Apparent Distribution Volume Vz): 0.296 ± 0.019 L/kg; AUC ([3]; read-out: Area Under Curve AUC): 1980 ± 165 ng·h/mL; clearance ([3]; read-out: Clearance CL): 2.54 ± 0.21 mL/min/kg; half-life ([3]; read-out: Half-Life t1/2 (converted)): 80.4 ± 2.4 min; MRT ([3]; read-out: Mean Residence Time MRT): 85.8 ± 4.8 min; increase of threshold of tenderness compared with the model group ([4]; 0.1 mg/kg i.v. once): 79.5%; threshold of tenderness ([4]; 0.1 mg/kg i.v. once): 13.7 g; increase of threshold of tenderness compared with the model group ([4]; 0.3 mg/kg i.v. once): 204.5%; threshold of tenderness ([4]; 0.3 mg/kg i.v. once): 23.2 g
CC(C)C[C@@H](NC(=O)[C@@H](Cc1ccccc1)NC(=O)CNC1Cc2ccccc2C1)C(=O)N[C@H](CCCCN)C(=O)N1CCOCC1 [Example 10, (R)—N—((R)-6-amino-1-morpholino-1-oxohexan-2-yl)-2-((R)-2-(2-((2,3-dihydro-1H-inden-2-yl)amino)acetamido)-3-phenylpropanamido)-4-methylpentanamide] (H-[N(Indan-2-yl)Gly][dF][dL][dK]-Morpholide)	> 1						
CC(C)C[C@@H](NC(=O)[C@@H](Cc1ccccc1)NC(=O)CNC[C@@H](c1ccccc1)C(C)C)C(=O)N[C@H](CCCCN)C(=O)N1CCC(N)(C(=O)O)CC1 [Example 4, 4-amino-1-((2R,5R,8R,14R)-2-(4-aminobutyl)-8-benzyl-5-isobutyl-15-methyl-4,7,10-trioxo-14-phenyl-3,6,9,12-tetraazahexadecan-1-oyl)piperidine-4-carboxylic Acid]	0.009						
